Measurements from paper PMC10269775, “Penicillin-Binding Protein Occupancy Dataset for 18 β-Lactams and 4 β-Lactamase Inhibitors in Neisseria gonorrhoeae” (Microbiology Spectrum, 2023).
≈ marks a conversion by molar mass, not a printed value.

molecular target: T1, PBP1, PBP2 and PBP3 (Neisseria gonorrhoeae, UniProt Q5FAB9); assay: not given; type: binding, Neisseria gonorrhoeae ATCC 49226; conditions: read-out: min. IC50 (minimum observed IC50 value); strain ATCC 49226
T1 sequence (Q5FAB9 22-469): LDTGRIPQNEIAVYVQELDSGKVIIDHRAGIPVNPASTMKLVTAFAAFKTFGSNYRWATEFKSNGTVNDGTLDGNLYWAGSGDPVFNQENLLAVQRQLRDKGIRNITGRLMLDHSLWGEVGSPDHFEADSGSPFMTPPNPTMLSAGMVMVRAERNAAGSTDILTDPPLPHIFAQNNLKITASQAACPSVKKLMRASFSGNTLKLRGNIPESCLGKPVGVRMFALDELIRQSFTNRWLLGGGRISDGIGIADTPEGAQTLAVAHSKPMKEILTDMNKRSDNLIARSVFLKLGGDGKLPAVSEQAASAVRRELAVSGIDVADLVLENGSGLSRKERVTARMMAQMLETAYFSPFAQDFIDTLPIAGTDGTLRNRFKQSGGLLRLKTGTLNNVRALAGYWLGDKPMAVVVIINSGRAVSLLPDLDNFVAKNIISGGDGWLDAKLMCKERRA

Which IC50 does the source give for `O=C(NC1CCNCC1)[C@@H]1CC[C@@H]2CN1C(=O)N2OS(=O)(=O)O` [REL, relebactam] here?
Its IC50 is 3.76 µM.

test system: N. gonorrhoeae ATCC 49226; assay: MIC, CLSI broth microdilution; type: cell-based, Neisseria gonorrhoeae; conditions: Neisseria gonorrhoeae, ATCC49226

For `C[C@H]1[C@H](NC(=O)/C(=N\OC(C)(C)C(=O)O)c2csc(N)n2)C(=O)N1S(=O)(=O)O` [ATM, aztreonam], which MIC is on record?
The MIC was 0.125 µg/mL (≈ 0.287 µM).

Which MIC does the source give for `O=C(NC1CCNCC1)[C@@H]1CC[C@@H]2CN1C(=O)N2OS(=O)(=O)O` [REL, relebactam] here?
Its MIC is greater than 256 µg/mL.

same assay, conditions: Neisseria gonorrhoeae, ATCC49226, read-out: MIC (Table S1)

With `O=C(NC1CCNCC1)[C@@H]1CC[C@@H]2CN1C(=O)N2OS(=O)(=O)O` [REL, relebactam] as the compound, how does the MIC read?
The MIC was 512 µg/mL (≈ 1470 µM).

same assay, conditions: Neisseria gonorrhoeae, ATCC49226; strain ATCC 49226; read-out: MIC

With `C[C@@H](O)[C@H]1C(=O)N2C(C(=O)O)=C(S[C@@H]3CN[C@H](CNS(N)(=O)=O)C3)[C@H](C)[C@H]12` [DOR, doripenem] as the compound, how does the MIC read?
The MIC was 0.032 µg/mL (≈ 0.0761 µM).

same assay, conditions: Neisseria gonorrhoeae, ATCC49226; strain ATCC 49226; read-out: MIC (Table S1)

Which MIC does the source give for `C[C@H]1[C@H](NC(=O)/C(=N\OC(C)(C)C(=O)O)c2csc(N)n2)C(=O)N1S(=O)(=O)O` [ATM, aztreonam] here?
The MIC was 0.25 µg/mL (≈ 0.574 µM).

With `C[C@@H](O)[C@H]1C(=O)N2C(C(=O)O)=C(S[C@@H]3CN[C@H](CNS(N)(=O)=O)C3)[C@H](C)[C@H]12` [DOR, doripenem] as the compound, how does the MIC read?
The MIC was 0.032 µg/mL (≈ 0.0761 µM).

molecular target: T2, PBP3 (Neisseria gonorrhoeae, UniProt Q5FAB9); assay: not given; conditions: read-out: IC50 PBP3; strain ATCC 19424; membrane preparation, 30 min drug then Bocillin FL
T2 sequence (Q5FAB9 22-469): T1 sequence (Q5FAB9 22-469)

For `O=C(NC1CCNCC1)[C@@H]1CC[C@@H]2CN1C(=O)N2OS(=O)(=O)O` [REL, relebactam], which IC50 is on record?
The IC50 was 3.65 µM.

test system: N. gonorrhoeae ATCC 19424; assay: MIC, CLSI broth microdilution; type: cell-based; conditions: Neisseria gonorrhoeae, ATCC19424

Which MIC does the source give for `O=C(NC1CCNCC1)[C@@H]1CC[C@@H]2CN1C(=O)N2OS(=O)(=O)O` [REL, relebactam] here?
The MIC was greater than 256 µg/mL.

same assay, conditions: Neisseria gonorrhoeae, ATCC19424, read-out: MIC (Table S1)

Which MIC does the source give for `O=C(NC1CCNCC1)[C@@H]1CC[C@@H]2CN1C(=O)N2OS(=O)(=O)O` [REL, relebactam] here?
Its MIC is 512 µg/mL (≈ 1470 µM).

same assay, conditions: Neisseria gonorrhoeae, ATCC19424; strain ATCC 19424; read-out: MIC

Which MIC does the source give for `C[C@H]1[C@H](NC(=O)/C(=N\OC(C)(C)C(=O)O)c2csc(N)n2)C(=O)N1S(=O)(=O)O` [ATM, aztreonam] here?
The MIC was 0.032 µg/mL (≈ 0.0735 µM).

For `C[C@@H](O)[C@H]1C(=O)N2C(C(=O)O)=C(S[C@@H]3CN[C@H](CNS(N)(=O)=O)C3)[C@H](C)[C@H]12` [DOR, doripenem], which MIC is on record?
Its MIC is 0.004 µg/mL (≈ 0.00951 µM).

same assay, conditions: Neisseria gonorrhoeae, ATCC19424; strain ATCC 19424; read-out: MIC (Table S1)

For `C[C@H]1[C@H](NC(=O)/C(=N\OC(C)(C)C(=O)O)c2csc(N)n2)C(=O)N1S(=O)(=O)O` [ATM, aztreonam], which MIC is on record?
The MIC was 0.032 µg/mL (≈ 0.0735 µM).

With `C[C@@H](O)[C@H]1C(=O)N2C(C(=O)O)=C(S[C@@H]3CN[C@H](CNS(N)(=O)=O)C3)[C@H](C)[C@H]12` [DOR, doripenem] as the compound, how does the MIC read?
The MIC was 0.004 µg/mL (≈ 0.00951 µM).

test system: N. gonorrhoeae; assay: not given; conditions: single 2-g dose; isolates with an MIC above 0.5 mg/L; cited from earlier work

With `C[C@H]1[C@H](NC(=O)/C(=N\OC(C)(C)C(=O)O)c2csc(N)n2)C(=O)N1S(=O)(=O)O` [ATM, aztreonam] as the compound, how does the cure rate read?
The cure rate was 50%.

molecular target: T2, PBP3; assay: not given; conditions: read-out: IC50 PBP3; strain ATCC 49226; membrane preparation, 30 min drug then Bocillin FL

For `O=C(NC1CCNCC1)[C@@H]1CC[C@@H]2CN1C(=O)N2OS(=O)(=O)O` [REL, relebactam], which IC50 is on record?
The IC50 was 3.76 µM.

molecular target: T3, PBP2 (Neisseria gonorrhoeae, UniProt P08149, A510V/A516G/A574V/F504L/H541N/I556V/I566V/K555Q/P552V); assay: biochemical; type: binding, Neisseria gonorrhoeae ATCC 49226; conditions: IC50 PBP2 (Table S1), strain ATCC 49226
T3 construct: endogenous in cells; host or cells: N. gonorrhoeae ATCC 49226, isolated membrane preparation

Which IC50 does the source give for `C[C@@H](O)[C@H]1C(=O)N2C(C(=O)O)=C(S[C@@H]3CN[C@H](CNS(N)(=O)=O)C3)[C@H](C)[C@H]12` [DOR, doripenem] here?
Its IC50 is 0.214 µM.

With `O=C(NC1CCNCC1)[C@@H]1CC[C@@H]2CN1C(=O)N2OS(=O)(=O)O` [REL, relebactam] as the compound, how does the IC50 read?
The IC50 was greater than 1470 µM.

same assay, conditions: IC50 PBP2, strain ATCC 49226; membrane preparation, 30 min drug then Bocillin FL

Which IC50 does the source give for `C[C@@H](O)[C@H]1C(=O)N2C(C(=O)O)=C(S[C@@H]3CN[C@H](CNS(N)(=O)=O)C3)[C@H](C)[C@H]12` [DOR, doripenem] here?
The IC50 was 0.19 µM.

With `O=C(NC1CCNCC1)[C@@H]1CC[C@@H]2CN1C(=O)N2OS(=O)(=O)O` [REL, relebactam] as the compound, how does the IC50 read?
Its IC50 is greater than 735 µM.

molecular target: T4, PBP1 (Neisseria gonorrhoeae, UniProt O05131); assay: PBP-binding assay (Bocillin FL) in isolated membrane preparations; conditions: strain ATCC 19424; membrane preparation, 30 min drug then Bocillin FL; read-out: IC50 PBP1 (converted)
T4 construct: endogenous in cells; host or cells: N. gonorrhoeae ATCC 19424, isolated membrane preparation
From the text: (§1) Bacterial membranes were collected by ultracentrifugation.

Which IC50 does the source give for `C[C@H]1[C@H](NC(=O)/C(=N\OC(C)(C)C(=O)O)c2csc(N)n2)C(=O)N1S(=O)(=O)O` [ATM, aztreonam] here?
Its IC50 is greater than 4.59 µM.

Which IC50 does the source give for `C[C@@H](O)[C@H]1C(=O)N2C(C(=O)O)=C(S[C@@H]3CN[C@H](CNS(N)(=O)=O)C3)[C@H](C)[C@H]12` [DOR, doripenem] here?
Its IC50 is 2.69 µM.

Which IC50 does the source give for `O=C(NC1CCNCC1)[C@@H]1CC[C@@H]2CN1C(=O)N2OS(=O)(=O)O` [REL, relebactam] here?
The IC50 was greater than 1470 µM.

molecular target: T5, PBP1 (Neisseria gonorrhoeae, UniProt O05131, A375T/F666S); assay: as above; set-up: species or system Neisseria gonorrhoeae ATCC 49226; conditions: IC50 PBP1 (Table S1), strain ATCC 49226
T5 construct: endogenous in cells; host or cells: N. gonorrhoeae ATCC 49226, isolated membrane preparation
From the text: as §1

Which IC50 does the source give for `O=C(NC1CCNCC1)[C@@H]1CC[C@@H]2CN1C(=O)N2OS(=O)(=O)O` [REL, relebactam] here?
The IC50 was greater than 1470 µM.

same assay, conditions: IC50 PBP1, strain ATCC 49226; membrane preparation, 30 min drug then Bocillin FL

Which IC50 does the source give for `C[C@H]1[C@H](NC(=O)/C(=N\OC(C)(C)C(=O)O)c2csc(N)n2)C(=O)N1S(=O)(=O)O` [ATM, aztreonam] here?
Its IC50 is greater than 4.59 µM.

With `C[C@@H](O)[C@H]1C(=O)N2C(C(=O)O)=C(S[C@@H]3CN[C@H](CNS(N)(=O)=O)C3)[C@H](C)[C@H]12` [DOR, doripenem] as the compound, how does the IC50 read?
The IC50 was 2.57 µM.

Which IC50 does the source give for `O=C(NC1CCNCC1)[C@@H]1CC[C@@H]2CN1C(=O)N2OS(=O)(=O)O` [REL, relebactam] here?
The IC50 was greater than 735 µM.

molecular target: T6, PBP2 (Neisseria gonorrhoeae, UniProt P08149, H541N); assay: as above; set-up: species or system Neisseria gonorrhoeae ATCC 19424; conditions: IC50 PBP2 (Table S1), strain ATCC 19424
T6 construct: endogenous in cells; host or cells: N. gonorrhoeae ATCC 19424, isolated membrane preparation

With `O=C(NC1CCNCC1)[C@@H]1CC[C@@H]2CN1C(=O)N2OS(=O)(=O)O` [REL, relebactam] as the compound, how does the IC50 read?
Its IC50 is 1470 µM.

same assay, conditions: IC50 PBP2, strain ATCC 19424; membrane preparation, 30 min drug then Bocillin FL

With `C[C@@H](O)[C@H]1C(=O)N2C(C(=O)O)=C(S[C@@H]3CN[C@H](CNS(N)(=O)=O)C3)[C@H](C)[C@H]12` [DOR, doripenem] as the compound, how does the IC50 read?
Its IC50 is 0.143 µM.

For `O=C(NC1CCNCC1)[C@@H]1CC[C@@H]2CN1C(=O)N2OS(=O)(=O)O` [REL, relebactam], which IC50 is on record?
Its IC50 is greater than 1470 µM.

test system: PBP1, PBP2 and PBP3; assay: not given; type: binding, Neisseria gonorrhoeae ATCC 19424; conditions: strain ATCC 19424

For `C[C@@H](O)[C@H]1C(=O)N2C(C(=O)O)=C(S[C@@H]3CN[C@H](CNS(N)(=O)=O)C3)[C@H](C)[C@H]12` [DOR, doripenem], which min. IC50 (minimum observed IC50 value) is on record?
Its min. IC50 (minimum observed IC50 value) is 0.01 µg/mL.

molecular target: T1, PBP1, PBP2 and PBP3; assay: not given; type: binding, Neisseria gonorrhoeae ATCC 19424; conditions: read-out: min. IC50 (minimum observed IC50 value); strain ATCC 19424

For `O=C(NC1CCNCC1)[C@@H]1CC[C@@H]2CN1C(=O)N2OS(=O)(=O)O` [REL, relebactam], which IC50 is on record?
The IC50 was 3.65 µM.
